# Assays:
# [1] = Combination of Varlitinib and Herceptin versus either alone; conditions: Varlitinib in combination with Herceptin (trastuzumab)
# Excerpt: In one embodiment the compound of formula (I), such as Varlitinib, is employed in combination with at least one further HER inhibitor, for example a combination of Varlitinib and Herceptin (trastuzumab) and/or pertuzumab.
# [2] = system: extra-hepatic cholangiocarcinoma; experiment: Example 2: person, stage IV extra-hepatic cholangiocarcinoma, Varlitinib with cisplatin/capecitabine then monotherapy; format: in vivo, human
# Protocol: A person, stage IV, extra-hepatic cholangiocarcinoma, prior treatment: • Whipple • Radiotherapy • Gemzar/cisplatin for 6 months For the first 6 cycles, the patient received Varlitinib 400 mg BID continuously with cisplatin (80 mg/m^2 every 3 weeks) and capecitabine (1000 mg/m2 BID, 2 weeks on, 1 week off). […] In summary, the patient received varlitinib with chemo for 6 cycles and varlitinib monotherapy for another 4 cycles (3 weeks per cycle).
# [3] = system: stage IV cholangiocarcinoma; experiment: Example 3: person, stage IV cholangiocarcinoma, Varlitinib with cisplatin/capecitabine; format: in vivo, human; conditions: Varlitinib 400 mg bi-daily, cisplatin and capecitabine
# Protocol: A person with stage IV cholangiocarcinoma (3 lesions) had progressive disease following treatment with: • radiotherapy, and • gemcitabine (Gemzar®) and cisplatin—6 months. […] The cisplatin and capecitabine regime was cisplatin 80 mg/m^2 IV infusion and capecitabine 1000 mg/m^2 orally twice daily for 14 days every 3 weeks.
# [4] = system: stage IV cholangiocarcinoma; experiment: Example 4: person, stage IV cholangiocarcinoma, Varlitinib 500 mg with cisplatin/capecitabine; format: in vivo, human; conditions: after treatment cycle 2; Varlitinib 500 mg bi-daily, cisplatin and capecitabine
# Protocol: A person with stage IV cholangiocarcinoma had progressive disease following treatment with radiotherapy and bi-weekly 5-FU. […] The cisplatin and capecitabine regime was cisplatin 80 mg/m^2 IV infusion and capecitabine 1000 mg/m^2 orally twice daily for 14 days every 3 weeks.
# [5] = system: stage IV cholangiocarcinoma and metastatic lymphadenopathy; experiment: Example 5: person, stage IV cholangiocarcinoma and metastatic lymphadenopathy, Varlitinib with cisplatin/5-FU; format: in vivo, human; conditions: 300 mg BID Varlitinib with cisplatin/5-FU
# Protocol: A person was diagnosed with stage IV cholangiocarcinoma and metastatic lymphadenopathy in January 2016. No prior surgery or treatment was given before initiating first line treatment of 300 mg BID Varlitinib combined with […]/5-FU, 28-day treatment cycle. Date of the first response 5 Mar. 2016, tumor C2 was reduced by 16%. Last response tumor C4 was reduced by 13% (17 May 2016).
# [6] = system: intrahepatic bile duct cholangiocarcinoma; experiment: Example 6: person, intrahepatic bile duct cholangiocarcinoma, Varlitinib with FOLFOX then monotherapy; format: in vivo, human; conditions: 9 cycles Varlitinib 400 mg reduced to 300 mg BID with FOLFOX, then 7 cycles monotherapy
# Protocol: A person diagnosed in 2013 with intrahepatic bile duct cholangiocarcinoma, had received surgery in the form of left hemihepatectomy in 15 Jul. 2013. Prior therapies were gemcitabine and cisplatin (in the period 14 Aug. 2013 to 8 Jan. 2014) and repeated between 13 May 2015 and 1 Jul. 2015. With this treatment the status was progressive disease. The patient was given 9 cycles of a combination of Varlitinib 400 mg reduced to 300 mg BID and FOLFOX. This was followed with 7 cycles of Varlitinib monotherapy.
# gastric tumours = conditions: 500 mg orally BID monotherapy 28 days, gastric tumours co-expressing EGFR and HER2 or HER2 amplified, cited from earlier work
compound,measurement,setting,value
"C[C@@H]1COC(Nc2ccc3ncnc(Nc4ccc(OCc5nccs5)c(Cl)c4)c3c2)=N1 [Varlitinib, (R)—N4-[3-Chloro-4-(thiazol-2-ylmethoxy)-phenyl]-N6-(4-methyl-4,5,-dihydro-oxazol-2-yl)-quinazoline-4,6-diamine]",Therapeutic activity of combination versus either entity alone,[1],more therapeutic activity than either entity alone
same,Duration of partial remission,[2]; 6 cycles with chemo then monotherapy,24 weeks
same,Reduction in tumour size,"[2]; end of cycle 6, Varlitinib 400 mg BID with cisplatin 80 mg/m^2 and capecitabine 1000 mg/m2 BID",85.77%
same,Reduction in tumour size,"[2]; end of cycle 8, varlitinib monotherapy after cycle 6",87%
same,Disease status by RECIST,"[2]; end of cycle 10, on varlitinib monotherapy",disease progression
same,Tolerability,[3],well tolerated
same,Response,[3]; after treatment cycle 6,85.77%
same,Dose limiting toxicity,[3]; first two treatment cycles,No dose limiting toxicity was observed
same,Response,[4],4%
same,Current disease status,[5],stable disease
same,"Tumor reduction, first response","[5]; C2, first line",16%
same,"Tumor reduction, last response","[5]; C4, first line",13%
same,Patient status,[6],partial response
same,Reduction in tumor size,[6],50%
same,Signs of clinical activity: signalling pathways responsible for cell proliferation,gastric tumours; biopsies before/after,downregulation of signalling pathways responsible for cell proliferation
same,Signs of clinical activity: cell survival and cell proliferation in gastric tumours,gastric tumours,reduction in cell survival and cell proliferation

# Source: US20190117655A1, “Treatment of Biliary Duct Cancer” (ASLAN Pharmaceuticals PTE LTD, priority 2015, published 2019)
